Laboratory results as given in PubChem BioAssay (NCI).
Values joined by “and” are separate entries in the source; they are usually repeats but may differ in a detail not shown here. Identical values can stand only once.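 Following 48 hours of exposure in 96-well plates, responses at five concentrations were used to interpolate endpoints linearly. Abbreviation: GI50, concentration required for 50% inhibition of growth. At the TGI there is no net growth.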

How the values were obtained:
Assay in all cases: NCI tumour cell line growth inhibition, 48 h
SN12C renal = tested on: SN12C renal
IGROV1 ovarian = tested on: IGROV1 ovarian
HL-60(TB) leukemia = tested on: HL-60(TB) leukemia
UO-31 renal = tested on: UO-31 renal
OVCAR-3 ovarian = tested on: OVCAR-3 ovarian
COLO 205 colon = tested on: COLO 205 colon
OVCAR-4 ovarian = tested on: OVCAR-4 ovarian
NCI-H23 lung = tested on: NCI-H23 lung
MALME-3M melanoma = tested on: MALME-3M melanoma
MDA-MB-231 breast = tested on: MDA-MB-231 breast

Row | Structure (SMILES) | GI50 (SN12C renal) | TGI (SN12C renal) | GI50 (IGROV1 ovarian) | TGI (IGROV1 ovarian) | GI50 (HL-60(TB) leukemia) | TGI (HL-60(TB) leukemia) | GI50 (UO-31 renal) | TGI (UO-31 renal) | GI50 (OVCAR-3 ovarian) | TGI (OVCAR-3 ovarian) | GI50 (COLO 205 colon) | TGI (COLO 205 colon) | GI50 (OVCAR-4 ovarian) | TGI (OVCAR-4 ovarian) | GI50 (NCI-H23 lung) | TGI (NCI-H23 lung) | GI50 (MALME-3M melanoma) | TGI (MALME-3M melanoma) | GI50 (MDA-MB-231 breast) | TGI (MDA-MB-231 breast)
1 | Cn1ncc(Cl)c1-c1cc(C(=O)N[C@H](CN)Cc2cccc(F)c2)sc1Cl | 1.86 µM and 2.04 µM | > 10 µM and 19.3 µM | 0.0387 µM and 0.0478 µM | 2.65 µM and 4.18 µM | > 3.71 µM and 2.48 µM | > 6.27 µM and 8.32 µM | 0.844 µM and 1.51 µM | > 7.4 µM and 12.5 µM | 1.18 µM and 2.8 µM | > 10 µM and 15.4 µM | 0.546 µM and 1.25 µM | 1.84 µM and 5.21 µM | 4.9 µM and 6.33 µM | > 10 µM and 19.3 µM | 2.45 µM and 8.12 µM | > 8.23 µM and 22 µM | 1.08 µM and 0.969 µM | 2.61 µM and 2.99 µM | 2.25 µM and 2.4 µM | > 8.32 µM and 8.33 µM
2 | CCC(CC)n1cnc2c(-c3cnc(N)cn3)nc(N3CC4CCC(C3)O4)nc21 | 0.294 µM | > 100 µM | 0.0929 µM | 1.13 µM | 1.41 µM | > 100 µM | 0.0961 µM | – | 0.5 µM | > 100 µM | 0.269 µM | > 83 µM | 0.169 µM | 3.17 µM | 0.56 µM | > 100 µM | 0.0472 µM | 0.688 µM | 0.191 µM | > 100 µM
3 | O=S(=O)(N=C1C(Cl)=C(Cl)C(=NS(=O)(=O)c2ccccc2)C(Cl)=C1Cl)c1ccccc1 | 29.9 µM | > 100 µM | 18.7 µM | 40.7 µM | 16.4 µM | > 100 µM | 18.8 µM | 48.9 µM | 9.53 µM | 26 µM | 23.9 µM | 88.8 µM | 22.1 µM | > 100 µM | 25.6 µM | > 100 µM | 18.5 µM | 56.4 µM | 21.9 µM | > 100 µM
4 | CSc1ccc(C2=NN(C(C)=O)C(c3ccc(-c4cc(Cl)c(Cl)cc4Cl)o3)C2)cc1 (stereo unspecified) | 14.5 µM | 27.6 µM | 9.99 µM | 24.9 µM | 12 µM | 30.4 µM | 12.4 µM | 25.4 µM | 15.3 µM | 37.8 µM | 16.8 µM | 32.1 µM | 13.4 µM | 26.8 µM | 15.4 µM | 29.6 µM | 19.5 µM | 39.9 µM | 11.3 µM | 23.3 µM
5 | COc1cc(-c2nn(-c3cccc(NC(=O)Nc4ccc(Cl)c(C(F)(F)F)c4)c3)cc2-c2ccncc2)ccc1Cl | 1.14 µM | 9.23 µM | 1.2 µM | 4.22 µM | 1.17 µM | > 32.5 µM | 0.865 µM | 4.1 µM | 0.889 µM | 2.44 µM | 0.711 µM | 1.54 µM | 1.29 µM | 25.6 µM | 1.13 µM | 8.02 µM | 0.838 µM | 2.35 µM | 0.76 µM | 2.6 µM
6 | Cc1ccc2c(C(C[N+](=O)[O-])c3ccccc3)c(-c3ccccc3)[nH]c2c1 (stereo unspecified) | 44.1 µM | > 95 µM | 13.4 µM | > 95 µM | 22.6 µM | 57.2 µM | 15.4 µM | > 95 µM | 16.3 µM | > 95 µM | 21.8 µM | > 95 µM | 42.4 µM | > 95 µM | 47 µM | > 95 µM | 10.2 µM | > 95 µM | 35.9 µM | > 95 µM
7 | CCCc1nn(C)c2c(=O)[nH]c(-c3cc(S(=O)(=O)N4CCN(C)CC4)ccc3OCC)nc12 | > 100 µM | > 100 µM | 91.4 µM | > 100 µM | > 100 µM | > 100 µM | > 100 µM | > 100 µM | > 100 µM | > 100 µM | > 100 µM | > 100 µM | > 100 µM | > 100 µM | > 100 µM | > 100 µM | > 100 µM | > 100 µM | > 100 µM | > 100 µM
8 | CC1(C)N=C(N)N=C(N)N1c1ccc(CNC(=O)Nc2ccc(S(=O)(=O)F)c(Cl)c2)c(Cl)c1 | 0.867 µM | > 100 µM | 0.0805 µM | > 100 µM | 0.377 µM | > 100 µM | 53.7 µM | > 100 µM | 6.34 µM | > 100 µM | 0.867 µM | > 100 µM | 4.57 µM | > 100 µM | 0.585 µM | > 100 µM | 17.3 µM | > 100 µM | 15.6 µM | > 100 µM
9 | COc1ccc(Br)cc1NC(=O)Nc1cccc2c1ccn2Cc1ccnc(N)c1 | 5.48 µM and 7.26 µM | 30.8 µM and > 10 µM | 7.64 µM and 3.95 µM | 44.2 µM and > 10 µM | 4.69 µM and 3.6 µM | 20.8 µM and > 10 µM | 9.78 µM and 3.12 µM | 26.3 µM and > 10 µM | 8.98 µM and > 10 µM | 23.6 µM and > 10 µM | 6.48 µM and 4.48 µM | 18.2 µM and > 10 µM | 3.85 µM and 5.52 µM | > 47.8 µM | 14.5 µM and > 10 µM | 40.7 µM and > 10 µM | 12.1 µM and > 10 µM | 32 µM and > 10 µM | 3.93 µM and 3.01 µM | 10.6 µM and > 10 µM
10 | CCC1=C(c2ccc(OC)cc2)C(C)(C)Oc2c1ccc(O)c2CN1CCCC1 | 3.74 µM | > 100 µM | 3.84 µM | 23.9 µM | 0.871 µM | 3.12 µM | 2.19 µM | > 100 µM | 4.13 µM | 36.2 µM | 14.9 µM | 87.4 µM | 2.16 µM | 29 µM | 3.02 µM | 21.6 µM | 2.05 µM | 5.36 µM | 2.39 µM | 4.97 µM
11 | O=c1cc(-c2ccc(F)cc2)[nH]c2ncccc12 | – | > 100 µM | – | > 100 µM | 12.9 µM | 34.1 µM | – | > 100 µM | 45.5 µM | > 100 µM | – | 60.3 µM | – | > 100 µM | – | > 100 µM | – | > 100 µM | – | > 100 µM
12 | Cc1cc2c(F)c(Oc3ncnc(Nc4ccc(N5C[C@@H](C)N[C@@H](C)C5)cc4)c3C#N)cc(F)c2[nH]1 | 3.39 µM | 14.3 µM | 2.48 µM | 6.91 µM | 1.93 µM | 3.95 µM | 1.1 µM | 3.39 µM | 1.75 µM | 3.46 µM | 1.68 µM | 3.58 µM | 1.22 µM | 6.04 µM | 2.44 µM | 11.3 µM | 1.61 µM | 3.48 µM | 1.98 µM | 4.39 µM
